# Source: US8389020B1, “Immediate action and long-lasting formulation to control moss and liverwort” (Tara Innovations LLC, priority 2011, dated 2013)
# Test system: moss
# Assay: Experiment 1: ferrous sulfate/lime mixtures applied to 6″×6″ moss areas in triplicate
# Format: in vivo
# Settings: in mixture with lime
# Experimental: In order to establish the effective concentration of ferrous sulfate in the formulation, mixtures of ferrous sulfate and lime with a ferrous sulfate concentration between 0 to 60% (w/w) were prepared (Table I) and applied to 6″×6″ area in triplicate. Water was sprayed over the area. The day time high temperature was 40° F. during the experiment and the night temperature decreased to 28° F. In one day, area with 30% or more ferrous sulfate concentration treatment turned black burning all the moss (Table II). The areas with 10% and 20% […] treatment were black in a week. There was no effect of 100% lime on the moss. Thus, a minimum concentration of 10% is suitable for the satisfactory results within a week. When % ferrous sulfate was more than 30%, the moss turned black in one day.
smiles,measurement,value
"O.O.O.O.O.O.O.O=S(=O)([O-])[O-].[Fe+2] [ferrous sulfate, Ferrous sulfate septahydrate (FeSO4.7H2O)]",Minimum ferrous sulfate concentration suitable for satisfactory results within a week,10%
